Source: PMC11091072, “Targeting bacterial nickel transport with aspergillomarasmine A suppresses virulence-associated Ni-dependent enzymes” (Nature Communications, 2024)
Values joined by “and” are separate entries in the source; they are usually repeats but may differ in a detail not shown here. Identical values can stand only once. “Also recorded” adds a separate entry of the source. Like-named read-outs stand apart in the source and are kept apart here.

Key:
[1] = Competitive ITC of AMA, Zn2+ and Ni2+ (Ni2+ affinity of AMA); format: binding; details: competition ITC, 25 mM Tris-HCl, 150 mM NaCl, pH 7.5, 37 °C; estimated; read-out: KD for Ni^2+
[2] = read-out: KD for Zn^2+; cited from earlier work
[3] = biological target: T1, NikA (Klebsiella pneumoniae, UniProt A6TFA3); format: cell-based; details: 250 μM
T1 sequence (A6TFA3 entry or part of it): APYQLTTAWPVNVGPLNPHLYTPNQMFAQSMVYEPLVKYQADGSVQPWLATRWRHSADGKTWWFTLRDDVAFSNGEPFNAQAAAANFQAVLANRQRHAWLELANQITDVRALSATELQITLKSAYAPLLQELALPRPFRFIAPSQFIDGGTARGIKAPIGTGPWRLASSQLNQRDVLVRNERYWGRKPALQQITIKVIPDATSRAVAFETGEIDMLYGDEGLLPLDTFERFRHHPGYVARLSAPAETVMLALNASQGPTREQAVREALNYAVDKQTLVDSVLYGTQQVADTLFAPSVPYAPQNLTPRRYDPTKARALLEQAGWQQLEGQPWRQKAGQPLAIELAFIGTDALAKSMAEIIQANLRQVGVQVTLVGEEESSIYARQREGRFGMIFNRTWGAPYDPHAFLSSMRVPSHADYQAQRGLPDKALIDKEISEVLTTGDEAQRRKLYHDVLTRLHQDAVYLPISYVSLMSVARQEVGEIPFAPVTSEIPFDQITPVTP

[4] = test system: [NiFe]-hydrogenase (Hyd-3); assay: Whole-cell [NiFe] hydrogenase assay (benzyl viologen reduction); format: cell-based, Klebsiella pneumoniae; parameters: Benzyl viologen hydrogenase assay (activity): unit not given here
From the text: We reasoned that disruption of Ni^2+ uptake and homeostasis should also perturb the activity of other Ni-dependent enzymes. To examine this possibility, we tested the effects of free AMA and Zn-AMA on Ni-dependent hydrogen metabolism in bacteria. […] K. pneumoniae produces a single [NiFe]-hydrogenase (Hyd-3) as part of the H2-evolving formate hydrogenlyase (FHL) complex and is encoded by the hyc operon (Fig S8)[21]. […] To measure [NiFe]-hydrogenase-catalyzed H2 […], benzyl viologen was used as an artificial electron acceptor, as previously described. Although Hyd-3 is involved in the evolution of H2, previous work in E. coli has shown that it is responsible for 90% of the hydrogen-dependent benzyl viologen reduction in crude extracts and whole-cell assays[41]–[44].
The whole-cell hydrogenase activity in K. pneumoniae was based on a modified method described by Lacasse et al.[41] […] The cell suspension was diluted 1/100 in LB supplemented with 0.8% glucose, 10 mM MgCl2, and 10 mM potassium phosphate, pH 7.2. […] Following an 18-hour incubation, whole-cell [NiFe] hydrogenase activity was monitored by adding benzyl viologen (1 mg/mL) to each well, followed by continuous monitoring of the change in absorbance at 630 nm using a BioTek Synergy H1 microplate reader in an anaerobic glove box.

[5] = test system: NikA; format: binding, Klebsiella pneumoniae; details: 100 μM
[6] = test system: K. pneumoniae biofilm; assay: Polystyrene microtiter biofilm assay (crystal violet); format: cell-based, Klebsiella pneumoniae
Experimental: Biofilm assays to assess the effect of Zn-AMA were adapted from a previously described method. Overnight cultures of K. pneumoniae or S. aureus USA300 were diluted in sterile saline (NaCl, 0.9% w/v) to an OD600 of 0.1 and diluted 1/200 in either M9-Cas, or artificial urine. Two-fold dilutions of Zn-AMA were added to the cells in a 96-well round-bottom microtiter plate, and the cells were grown at 37 °C for 18 hours in a static incubator. […] The biofilms were washed three times with deionized water, air-dried, and stained with 0.1% crystal violet for 15 min. Excess crystal violet was removed, the plates were washed with deionized water three times, and they were air-dried for 1 hour. […] Experiments were performed in four replicates, and absorbance measurements were performed in a BioTek Synergy H1 plate reader.

[7] = test system: K. pneumoniae urease activity (Ni2+ uptake); assay: Competition of Zn-AMA with Ni-(L-His)2 (urease-dependent pH); format: cell-based, Klebsiella pneumoniae
[8] = test system: K. pneumoniae ATCC 33495; assay: Galleria mellonella infection model; format: in vivo; details: for survival curve event per larva: K. pneumoniae + 7.5 μg/mL Zn-AMA, one cell per larva
Experimental: (§1) The cell suspensions were mixed at an equal volume of 300 μg/mL Zn-AMA before injection. The larvae were each injected with 10 μL ([…]) of bacterial suspension with and without Zn-AMA or PBS. Ten larvae were used per group, incubated at 30 °C, and monitored on a 24-hour cycle. Fresh G. mellonella larvae were obtained from The Dragon Lair (www.thedragonlair.ca).

[9] = test system: S. aureus USA300 ureC::tn; assay: Galleria mellonella infection model; format: in vivo; details: for survival curve event per larva: S. aureus ureC::Tn + 7.5 μg/mL Zn-AMA, one cell per larva
Experimental: as §1

[10] = test system: S. aureus USA300; assay: Galleria mellonella infection model; format: in vivo; details: for survival curve event per larva: S. aureus + 7.5 μg/mL Zn-AMA, one cell per larva
Experimental: as §1

[11] = biological target: T1, NikA; format: binding

For `N[C@@H](CN[C@@H](CN[C@@H](CC(=O)O)C(=O)O)C(=O)O)C(=O)O` [AMA, aspergillomarasmine A], the Kd [1] is listed as ~0.08 nM and 0.08 nM, the Kd [2] is listed as 0.2 nM and the “NikA thermal stability in cells (CETSA)” value [3] is listed as “barely detectable at 60 °C”. For the same compound, the “Benzyl viologen hydrogenase assay (activity)” value ([4]; 1.5625 μM) was 10.01 and 8.89, the “Benzyl viologen hydrogenase assay (activity)” value ([4]; 3.125 μM) was 10.26 and 7.90 and the “Benzyl viologen hydrogenase assay (activity)” value ([4]; 6.25 μM) was 10.55 and 8.44. The “Benzyl viologen hydrogenase assay (activity)” value ([4]; 12.5 μM) was 10.31 and 8.59, the “Benzyl viologen hydrogenase assay (activity)” value ([4]; 25 μM) was 10.36 and 8.93 and the “Benzyl viologen hydrogenase assay (activity)” value ([4]; 50 μM) was 9.47 and 8.79. The “Benzyl viologen hydrogenase assay (activity)” value ([4]; 100 μM) was 9.67 and 7.85, the “Benzyl viologen hydrogenase assay (activity)” value ([4]; 200 μM) was 9.18 and 9.08 and the “Benzyl viologen hydrogenase assay (activity)” value ([4]; 400 μM) was 9.38 and 7.95. The “effect on [NiFe]-hydrogenase activity” value ([4]; LB-glucose, anaerobic, whole cell) was “no impact on [NiFe]-hydrogenase activity”.
In the case of `N[C@@H](CN[C@@H](CN[C@@H](CC(=O)O)C(=O)O)C(=O)O)C(=O)O.[Zn+2]` [Zn-AMA], the “effect on stability of recombinant NikA” value [5] is reported as “increase NikA’s stability”, the “Biofilm (A595), crystal violet” value ([6]; 1.56 μM, artificial urine) is reported as 0.659 and 0.666 and 0.436 and 0.533 and the “Planktonic (A595)” value ([6]; 1.56 μM, artificial urine) is reported as 0.141 and 0.142 and 0.148 and 0.16. For the same compound, the “Biofilm (A595), crystal violet” value ([6]; 3.12 μM, artificial urine) was 0.633 and 0.585 and 0.45 and 0.471, the “Planktonic (A595)” value ([6]; 3.12 μM, artificial urine) was 0.147 and 0.142 and 0.13 and 0.155 and the “Planktonic (A595)” value ([6]; 6.2 μM, artificial urine) was 0.194 and 0.11 and 0.126 and 0.129. For the same compound, the “Planktonic (A595)” value ([6]; 12.5 μM, artificial urine) was 0.177 and 0.124 and 0.113 and 0.167, the “Planktonic (A595)” value ([6]; 25 μM, artificial urine) was 0.165 and 0.136 and 0.151 and 0.152 and the “Planktonic (A595)” value ([6]; 50 μM, artificial urine) was 0.165 and 0.152 and 0.157 and 0.154. For the same compound, the “Planktonic (A595)” value ([6]; 100 μM, artificial urine) was 0.171 and 0.148 and 0.158 and 0.166, the “Planktonic (A595)” value ([6]; 200 μM, artificial urine) was 0.167 and 0.176 and 0.175 and 0.166 and the “effect on biofilm production” value ([6]; M9 minimal medium) was “biofilms were unperturbed”. For the same compound, the “effect on biofilm production” value ([6]; artificial urine) was “completely suppress biofilm production”, the “pH of culture (Zn-AMA v.s. L-His)” value ([7]; Zn-AMA 6.25 μM + L-His 3.12 μM) was 7.4 and 7.43 and the “pH of culture (Zn-AMA v.s. L-His)” value ([7]; Zn-AMA 6.25 μM + L-His 6.25 μM) was 7.74 and 7.71. The “pH of culture (Zn-AMA v.s. L-His)” value ([7]; Zn-AMA 6.25 μM + L-His 12.5 μM) was 7.97 and 8.09, the “pH of culture (Zn-AMA v.s. L-His)” value ([7]; Zn-AMA 6.25 μM, L-His 0 μM) was 6.53 and 6.52 and the “pH of culture (Zn-AMA v.s. L-His)” value ([7]; Zn-AMA 25 μM + L-His 3.12 μM) was 6.81 and 6.82. The “pH of culture (Zn-AMA v.s. L-His)” value ([7]; Zn-AMA 25 μM + L-His 6.25 μM) was 7.1 and 7.22, the “pH of culture (Zn-AMA v.s. L-His)” value ([7]; Zn-AMA 25 μM + L-His 12.5 μM) was 7.41 and 7.51 and the “pH of culture (Zn-AMA v.s. L-His)” value ([7]; Zn-AMA 25 μM, L-His 0 μM) was 6.38 and 6.37. For the same compound, the “survival curve event per larva” value ([8]; day 1 post infection) was 1, the “survival curve event per larva” value ([8]; day 2 post infection) was 1 and the “survival curve event per larva” value ([8]; day 3 post infection) was 1. For the same compound, the “survival curve event per larva” value ([8]; day 5 post infection) was 1, the “G. mellonella larvae survival” value ([8]; K. pneumoniae infection, 7.5 mg/kg, seven days) was “significantly enhance the survival; also recorded: effective monotherapy” and the “G. mellonella larvae survival” value ([9]; S. aureus USA300 ureC::tn infection, 7.5 mg/kg) was “no effect on the survival; also recorded: no significant survival benefit”. The “survival curve event per larva” value ([9]; day 1 post infection) was 1, the “survival curve event per larva” value ([9]; day 2 post infection) was 1 and the “survival curve event per larva” value ([9]; day 3 post infection) was 1. For the same compound, the “survival curve event per larva” value ([9]; day 5 post infection) was 1, the “survival curve event per larva” value ([10]; day 1 post infection) was 1 and the “survival curve event per larva” value ([10]; day 2 post infection) was 1. For the same compound, the “survival curve event per larva” value ([10]; day 3 post infection) was 1, the “survival curve event per larva” value ([10]; day 5 post infection) was 1 and the “survival curve event per larva” value ([10]; day 7 post infection) was 0. The “G. mellonella larvae survival” value ([10]; S. aureus USA300 infection, 7.5 mg/kg, seven days) was “significantly enhance the survival; also recorded: effective monotherapy”, the “Benzyl viologen hydrogenase assay (activity)” value ([4]; 1.5625 μM) was 9.43 and 9.72 and the “Benzyl viologen hydrogenase assay (activity)” value ([4]; 3.125 μM) was 9.23 and 9.47. For the same compound, the “Benzyl viologen hydrogenase assay (activity)” value ([4]; 6.25 μM) was 8.98 and 9.82, the “Benzyl viologen hydrogenase assay (activity)” value ([4]; 12.5 μM) was 9.03 and 8.64 and the “Benzyl viologen hydrogenase assay (activity)” value ([4]; 25 μM) was 7.51 and 6.87. The “Benzyl viologen hydrogenase assay (activity)” value ([4]; 50 μM) was 5.01 and 4.71, the “Benzyl viologen hydrogenase assay (activity)” value ([4]; 100 μM) was 2.11 and the “Benzyl viologen hydrogenase assay (activity)” value ([4]; 200 μM) was 0.69 and 0.39. For the same compound, the EC50 ([4]; read-out: EC50, Hyd-3 [NiFe]-hydrogenase inhibition, LB-glucose, anaerobic, whole cell, benzyl viologen) was 50800 ± 4400 nM, the “fold greater KD (weaker affinity) relative to Ni-(L-His)2” value [11] was 14 fold and the “n (stoichiometry, ITC)” value ([11]; 37 °C, pH 7.5) was 0.78. The “∆G” value ([11]; 37 °C, pH 7.5) was -7.3 kcal/mol, the “∆H” value ([11]; 37 °C, pH 7.5) was -11.6 kcal/mol and the “−T∆S” value ([11]; 37 °C, pH 7.5) was 4.3 kcal/mol. For the same compound, the Kd ([11]; read-out: KD for NikA (ITC), 25 mM Tris-HCl, 150 mM NaCl, 0.1% Triton X-100, pH 7.5, 37 °C) was 6800 ± 400 nM.
